Patent publication USRE40387E1, “Pharmaceutical compositions, dosage forms and methods for oral administration of epothilones” (Bristol-Myers Squibb Company, priority 2001, dated 2008)
Values joined by “and” are separate entries in the source; they are usually repeats but may differ in a detail not shown here. Equal entries are not always repeated. Where two headings read alike, the source gives them in different places.

What was measured:
[1] = Kinetics in single dose IV toxicology study in dogs; type: in vivo; conditions: for mean CMAX in plasma: combined across gender; for AUC / Cmax: both sexes, dog, plasma; for Cmax: read-out: mean CMAX of Compound (B) in plasma
Experimental: The kinetics of Compound (A) were also evaluated as part of a single dose IV toxicology study. Compound (A) was given as an IV infusion (ca. 15 min) at doses of 0.5 and 5 mg/kg to 2 dogs/gender/dose. […] Blood samples were obtained over a period of 48 h after dosing, and plasma concentrations of Compound (A) and Compound (B) were determined using the LC/MS/MS assay with a standard curve range of 2-500 ng/mL for both analytes. […] T-HALF, MRT(INF), CLT, and VSS were not determined due to the limited sampling used in the study.

[2] = Toxicokinetics in single dose IV toxicology study in rats; type: in vivo
Experimental: The toxicokinetics of Compound (A) were evaluated in a single dose IV toxicology study in rats. […] Compound (A) was given as an IV infusion (ca. 3 min) at doses of 10, 25, and 30 mg/kg to 3 rats/gender/dose. Serial blood samples were obtained over a period of 24 h after dosing, and plasma concentrations of Compound (A) and Compound (B) were determined using an LC/MS/MS assay with a standard curve range of 2-500 ng/mL for both analytes. At a dose of 10, 25, and 30 mg/kg, the mean CMAX values of Compound (A) in male rats were 6422, 19066, and 24414 ng/mL, respectively; in female rats, the mean CMAX values were 8384, 20524, and 25054 ng/mL, respectively. […] For doses in a ratio of 1:2.5:3 proportion, the mean CMAX values of Compound (A) for males and females were in the ratio of 1:3.0:3.8 and 1:2.5:3.0, respectively, and the AUC values were in the ratio of 1:3.1:4.9 and 1:3.5:4.2, respectively. T-HALF, mean residence time over the time interval zero to infinity MRT(INF), total body clearance (CLT), and VSS were not determined due to the limited sampling used in the study.

[3] = Pharmacokinetics and absolute oral bioavailability of formulations in beagle dogs; type: in vivo, adult male beagle dogs; conditions: for CMAX, mean / TMAX, median / Cmax / Tmax: n = 3; for AUC(0-t) / Cmax / Tmax: male, beagle, dog, plasma; for AUC(0-t): T = 24 h; for Tmax: read-out: TMAX, median
Experimental: The absolute oral bioavailability of various formulations of Compound (A) in adult male beagle dogs (n=4) was evaluated. Compound (A) was given as a 10 min intravenous (IV) infusion (0.5 mg/kg), a buffered oral solution (2 mg/kg), and a buffered oral suspension (1 mg/kg).
The design was a single-dose, four-treatment, four-period, non-randomized, crossover design. Compound (A) was given to four adult male beagle dogs as a 10 min IV infusion (0.5 mg/kg), a buffered oral solution (2 mg/kg), or a buffered oral suspension (2 mg/kg). […] Upon reconstitution, the pH of the buffered suspension was about 8.0 and the strength was approximately 0.75 mg/mL. Due to cumulative toxicity the dose for the oral suspension scheduled during the third treatment period was reduced from 2 mg/kg to 1 mg/kg. Furthermore, the fourth treatment was not administered for lack of an evaluable formulation. The wash-out period between treatments was at least 7 days. Serial blood samples were collected over 24 h after dose administration and concentrations of Compound (A) and Compound (B) were determined using a LC/MS/MS assay with a standard curve range of 2-500 ng/mL for both analytes. The LC/MS/MS assay was the same as used in Example 1.
Analytical runs consisted of standard, quality control (QC), and study samples. The plasma volume used for analysis was 0.2 mL and the standard curve range was 2 to 500 ng/mL for both analytes, defining the lower limit of quantitation (LLQ) and upper-limit of quantitation (ULQ), respectively. If the predicted concentration of a study sample was less than that of the lowest standard, the value of the predicted concentration was reported as <LLQ. […]. If the predicted concentration was greater than that of the highest standard, the result of that analysis was reported as >ULQ and an appropriate volume of that sample was diluted with blank plasma and reanalyzed.
Four adult male dogs with venous access for drug administration and blood collection were selected for the study. The dogs were acclimated for at least one week prior to study initiation and were housed in individual steel cages. Animals were identified by a unique number and by a tag attached to the cage. The dogs were offered drinking water ad libitum, and fed once a day with standard canine diet except for an overnight (about 12 h) fast prior to dosing which was continued until 4 h after dosing. Fifteen (15) minutes prior to administration of the buffered oral suspension, the dogs were pretreated with pentagastrin (6 :g/kg; intramuscularly). Pentagastrmn pretreatment was used only for the oral suspension leg. The IV dose was administered as a constant-rate infusion over a period of 10 min using a calibrated infusion pump. The oral solution and suspension doses were administered by gavage and the gavage tubes were rinsed with 20 mL of water.
Serial blood samples (3 mL) were collected at predose, and 10 min (IV only; end-of-infusion), 15 min, 20 min (IV only), 30 min, and 45 min, and 1 h, 1.5 h, 2 h, 4 h, 6 h, 8 h, 12 h, and 24 h after dosing. Blood samples were collected into Vacutainer® tubes containing K3-EDTA as the anticoagulant and the contents of each tube were mixed by gently inverting the tube. The blood samples were then placed immediately on chipped ice. Plasma was obtained within 30 min of collection by centrifuging the tubes at approximately 4° C. and 2000×g for 5 min. Plasma samples were stored at or below −20° C. until analyzed for the concentrations Compound (A) and Compound (B).
The peak plasma concentration (CMAX) and the time to reach peak concentration (TMAX) were recorded directly from experimental observations. The area under the plasma concentration-time curve from time zero to T (AUC(0−T)), where T is the time of the last measurable plasma concentration, was calculated using the trapezoidal rule (See, M. Gibaldi, et al., Pharmacokinetics, 2nd ed., New York, N.Y., Marcel Decker, p. 445-91982). […]

[4] = Single dose oral toxicity study in dogs; type: in vivo; conditions: oral solution 0.4 mL/kg
Experimental: The mean (SD) [n=3] […] Although the oral formulation for both studies was identical, the total volume of the oral solution administered in the current study was about 1.3 mL/kg while that in the toxicology study was 0.4 mL/kg. […] Compound (A) is an acid labile drug, thus, the higher exposure after oral solution in the current study compared to the toxicology study is likely related to better protection from gastric acid degradation.

[5] = IV infusion of Compound (A) 0.5 mg/kg
[6] = IV infusion of Compound (A) 5 mg/kg
[7] = female rats, IV infusion 10 mg/kg
[8] = female rats, IV infusion 25 mg/kg
[9] = female rats, IV infusion 30 mg/kg
[10] = male rats, IV infusion 10 mg/kg
[11] = male rats, IV infusion 25 mg/kg
[12] = male rats, IV infusion 30 mg/kg
[13] = dogs, IV Compound (A) 0.5 mg/kg
[14] = dogs, buffered oral solution of Compound (A) 2 mg/kg
[15] = two dogs with both IV and oral solution data

## C/C(=C\c1csc(C)n1)[C@@H]1C[C@@H]2O[C@]2(C)CCC[C@H](C)[C@H](O)[C@@H](C)C(=O)C(C)(C)[C@@H](O)CC(=O)N1 (relative stereo) [Compound (A), [1S-[1R*,3R*(E),7R*,10S*,11R*,12R*,16S*]]-7,11-dihydroxy 8,8,10,12,16-pentamethyl-3-[1-methyl-2-(2-methyl-4-thiazolyl)ethenyl-4-aza-17-oxobicyclo[14.1.0]heptadecane-5,9-dione]
[1]; [5]
  mean AUC in plasma: 316 ng·h/mL
  mean CMAX in plasma: 218 ng/mL
[1]; [6]
  mean AUC in plasma: 6925 ng·h/mL
  mean CMAX in plasma: 5118 ng/mL
[2]; [7]
  mean CMAX: 8384 ng/mL
  mean area under the concentration vs. time curve (AUC): 8156 ng·h/mL
[2]; [8]
  mean CMAX: 20524 ng/mL
  mean area under the concentration vs. time curve (AUC): 28476 ng·h/mL
[2]; [9]
  mean CMAX: 25054 ng/mL
  mean area under the concentration vs. time curve (AUC): 34563 ng·h/mL
[2]; [10]
  mean CMAX: 6422 ng/mL
  mean area under the concentration vs. time curve (AUC): 3864 ng·h/mL
[2]; [11]
  mean CMAX: 19066 ng/mL
  mean area under the concentration vs. time curve (AUC): 11980 ng·h/mL
[2]; [12]
  mean CMAX: 24414 ng/mL
  mean area under the concentration vs. time curve (AUC): 19269 ng·h/mL
[3]; [13]
  CMAX, mean: 1120 (189) ng/mL
  TMAX, median: 10.2 min
[3]; [14]
  AUC(0−T), mean (SD): 560 (159) h.ng./mL
  CMAX, mean: 365 (40.9) ng/mL
  TMAX, median: 30 min
[3]; dogs, oral solution 1.3 mL/kg vs 0.4 mL/kg
  mean AUC after oral solution higher than dose-normalized mean AUC of oral toxicity study: approximately 2 fold
[3]; [15]
  absolute oral bioavailability, individual dogs: 48.3% and 30.6%
  absolute oral bioavailability, mean value: 39.5%
[4]
  dose-normalized mean AUC: 257 ng·h/mL

## CC1=NC(/C=C/[C@@H]2C[C@@H](O)[C@](C)(O)CCC[C@H](C)[C@H](O)[C@@H](C)C(=O)C(C)(C)[C@@H](O)CC(=O)N2)CS1 (stereo partly drawn) [Compound (B)]
[1]; [5]
  AUC: 55 ng·h/mL
  Cmax: 95.6 ng/mL
[1]; [6]
  AUC: 1110 ng·h/mL
  Cmax: 984 ng/mL
[2]; both sexes, rat, plasma, rats, IV Compound (A) 10-30 mg/kg, read-out: AUC of Compound (B) across gender and dose groups
  AUC: 222 to 2000 ng·h/mL
[2]; both sexes, rat, plasma, rats, IV Compound (A) 10-30 mg/kg, read-out: CMAX of Compound (B) across gender and dose groups
  Cmax: 499 to 1790 ng/mL
[3]; dogs, IV Compound (A) 0.5 mg/kg, 0.17 h
  mean plasma concentration: 0 ng/mL
[3]; dogs, IV Compound (A) 0.5 mg/kg, 0.75 h
  mean plasma concentration: 0 ng/mL
[3]; dogs, IV Compound (A) 0.5 mg/kg, 1 h
  mean plasma concentration: 0 ng/mL
[3]; dogs, IV Compound (A) 0.5 mg/kg, 1.5 h
  mean plasma concentration: 0 ng/mL
[3]; dogs, IV Compound (A) 0.5 mg/kg, 2 h
  mean plasma concentration: 0 ng/mL
[3]; dogs, IV Compound (A) 0.5 mg/kg, 4 h
  mean plasma concentration: 0 ng/mL
[3]; dogs, IV Compound (A) 0.5 mg/kg, 6 h
  mean plasma concentration: 0 ng/mL
[3]; dogs, IV Compound (A) 0.5 mg/kg, 8 h
  mean plasma concentration: 0 ng/mL
[3]; dogs, IV Compound (A) 0.5 mg/kg, 12 h
  mean plasma concentration: 0 ng/mL
[3]; dogs, IV Compound (A) 0.5 mg/kg, 24 h
  mean plasma concentration: 0 ng/mL
[3]; dogs, buffered oral solution of Compound (A) 2 mg/kg, 0.25 h
  mean plasma concentration: 4.1 ng/mL
[3]; dogs, buffered oral solution of Compound (A) 2 mg/kg, 0.5 h
  mean plasma concentration: 21.3 ng/mL
[3]; dogs, buffered oral solution of Compound (A) 2 mg/kg, 0.75 h
  mean plasma concentration: 27.2 ng/mL
[3]; dogs, buffered oral solution of Compound (A) 2 mg/kg, 1 h
  mean plasma concentration: 23.8 ng/mL
[3]; dogs, buffered oral solution of Compound (A) 2 mg/kg, 2 h
  mean plasma concentration: 8.4 ng/mL
[3]; dogs, buffered oral solution of Compound (A) 2 mg/kg, 4 h
  mean plasma concentration: 2.4 ng/mL
[3]; dogs, buffered oral solution of Compound (A) 2 mg/kg, 6 h
  mean plasma concentration: 0.8 ng/mL
[3]; dogs, buffered oral solution of Compound (A) 2 mg/kg, 8 h
  mean plasma concentration: 0 ng/mL
[3]; dogs, buffered oral solution of Compound (A) 2 mg/kg, 12 h
  mean plasma concentration: 0 ng/mL
[3]; dogs, buffered oral solution of Compound (A) 2 mg/kg, 24 h
  mean plasma concentration: 0 ng/mL
[3]; [13]
  AUC(0-t): 0.69 ng·h/mL
  Cmax: 3.8 ng/mL
  Tmax: 10.2 min
[3]; [14]
  AUC(0-t): 45.2 ng·h/mL
  Cmax: 27.2 ng/mL
  Tmax: 45 min
